Laboratory results published in patent US3957790A, “N-(3,3-diphenylpropyl)-n'-aralkyl-substituted piperazines” (Tokyo Tanabe Company, Ltd., priority 1974, dated 1976).
Counter-ions that a name gives are not always drawn.

Assays:
coronary blood flow = coronary blood flow increasing action, measured in rabbits by the Langendorff method; design: species or system rabbit
From the text: The above-mentioned prior known derivatives of piperazine, however, have defects in that they are either too weak in the coronary blood flow increasing action [ED50 (mg)-the dose which can increase the coronary blood flow by 50%] or too strong in toxicity to be put to practical use as remedies for humans. Indeed, only one compound, trimetazidine dihydrochloride, [1-(2,3,4-trimethoxybenzyl)piperazine dihydrochloride)], is now being manufactured as a remedy for humans.
(§1) To illustrate one of the pharmacological effects of these compounds comparative experiments were carried out on the coronary blood flow increasing action, which was measured in rabbits by the Langendorff method, and on acute toxicity using the said trimetazidine as control, with the results being shown in Table 1. The Langendorff method was carried out according to the method described in Folia Pharmacologica Japonica, vol. 56, p. 1387 (1960), and the acute toxicity was measured by injection into the peritoneal cavities of mice.

[1] = acute toxicity by injection into the peritoneal cavities of mice; conditions: in vivo
Protocol: as §1

SMILES | ED50 (coronary blood flow increasing action; dose which can increase the coronary blood flow by 50%) (coronary blood flow) [mg] | LD50 ([1]; mouse, ip) [mg/kg] | LD50 ([1]; ip mouse) [mg/kg]
COc1ccc(CN2CCN(CCC(c3ccccc3)c3ccccc3)CC2)c(OC)c1OC [1-(3,3-diphenylpropyl)-4-(2,3,4-trimethoxybenzyl)-piperazinedihydrochloride] | 0.02 | 100 | 
COc1cc(CN2CCN(CCC(c3ccccc3)c3ccccc3)CC2)cc(OC)c1OC.Cl.Cl [1-(3,3-diphenylpropyl)-4-(3,4,5-trimethoxybenzyl)piperazine dihydrochloride] | 0.06 |  | 89
COc1ccc(CN2CCN(CCC(c3ccccc3)c3ccccc3)CC2)cc1OC.Cl.Cl [1-(3,3-diphenylpropyl)-4-(3,4-dimethoxybenzyl)piperazine dihydrochloride] | 0.05 |  | 66
Cl.Cl.c1ccc(CN2CCN(CCC(c3ccccc3)c3ccccc3)CC2)cc1 [1-(3,3-diphenylpropyl)-4-benzylpiperazine dihydrochloride] | 0.08 |  | 101
COc1ccc(CN2CCNCC2)c(OC)c1OC.Cl.Cl [Trimetazidine, 1-(2,3,4-trimethoxybenzyl)piperazine dihydrochloride, reference compound] | 0.80 |  | 390
